We go through ten compounds from patent US20240269139A1, “COMPOUNDS FOR TARGETED PROTEIN DEGRADATION OF KINASES” (DANA-FARBER CANCER INSTITUTE, INC., priority 2020, published 2024).

Read-outs that look alike come from different tables or passages of the source.

The target in assay [1] is T1, protein kinases (human kinome) (Homo sapiens, UniProt O75385).
T1 sequence (O75385 1-1050): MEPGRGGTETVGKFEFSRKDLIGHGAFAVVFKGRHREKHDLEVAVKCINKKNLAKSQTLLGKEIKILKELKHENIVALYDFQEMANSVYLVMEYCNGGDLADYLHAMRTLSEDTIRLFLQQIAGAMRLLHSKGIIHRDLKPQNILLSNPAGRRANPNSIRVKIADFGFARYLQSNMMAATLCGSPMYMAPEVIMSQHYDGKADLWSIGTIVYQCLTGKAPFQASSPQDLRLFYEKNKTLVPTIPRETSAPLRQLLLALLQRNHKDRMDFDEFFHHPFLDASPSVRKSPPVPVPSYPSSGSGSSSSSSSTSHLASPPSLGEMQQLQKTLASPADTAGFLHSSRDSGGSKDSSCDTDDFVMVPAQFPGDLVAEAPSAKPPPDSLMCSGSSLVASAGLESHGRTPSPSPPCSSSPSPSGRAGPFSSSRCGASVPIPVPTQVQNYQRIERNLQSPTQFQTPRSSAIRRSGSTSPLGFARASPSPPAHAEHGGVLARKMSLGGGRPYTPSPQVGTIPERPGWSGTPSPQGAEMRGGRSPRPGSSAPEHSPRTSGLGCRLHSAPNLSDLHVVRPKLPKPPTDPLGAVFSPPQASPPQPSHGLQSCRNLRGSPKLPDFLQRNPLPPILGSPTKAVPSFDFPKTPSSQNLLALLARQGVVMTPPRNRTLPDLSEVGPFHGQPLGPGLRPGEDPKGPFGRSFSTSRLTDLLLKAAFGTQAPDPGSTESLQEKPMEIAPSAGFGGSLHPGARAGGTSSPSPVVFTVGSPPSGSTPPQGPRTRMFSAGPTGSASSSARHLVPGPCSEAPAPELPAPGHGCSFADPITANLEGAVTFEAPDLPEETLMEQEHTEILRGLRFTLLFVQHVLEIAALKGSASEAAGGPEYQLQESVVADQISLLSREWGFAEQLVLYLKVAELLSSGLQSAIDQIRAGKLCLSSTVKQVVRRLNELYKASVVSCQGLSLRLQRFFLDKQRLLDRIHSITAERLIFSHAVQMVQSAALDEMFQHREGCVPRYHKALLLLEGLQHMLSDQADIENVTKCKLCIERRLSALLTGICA
In kind it is cell-based. The following applies: for logFC: ULK1 (O75385) protein abundance, degrader vs DMSO, down; for logFC ULK1: ULK1 O75385.

The target of assay [2] is protein kinases (human kinome) (Homo sapiens, UniProt P53671). It counts as cell-based. The following applies: for logFC LIMK2: LIMK2 (P53671), down; for logFC of LIMK2: LIMK2 P53671.
The target in assay [3] is extended human kinome (kinase-like proteins) (Homo sapiens, UniProt Q16875). Put plainly: Whole cell quantitative proteomics: extended kinome hits. The following applies: Accession Q16875.
Assay [4] concerns the target T2, extended human kinome (kinase-like proteins) (Homo sapiens, UniProt Q53R41).
T2 sequence (Q53R41 1-847): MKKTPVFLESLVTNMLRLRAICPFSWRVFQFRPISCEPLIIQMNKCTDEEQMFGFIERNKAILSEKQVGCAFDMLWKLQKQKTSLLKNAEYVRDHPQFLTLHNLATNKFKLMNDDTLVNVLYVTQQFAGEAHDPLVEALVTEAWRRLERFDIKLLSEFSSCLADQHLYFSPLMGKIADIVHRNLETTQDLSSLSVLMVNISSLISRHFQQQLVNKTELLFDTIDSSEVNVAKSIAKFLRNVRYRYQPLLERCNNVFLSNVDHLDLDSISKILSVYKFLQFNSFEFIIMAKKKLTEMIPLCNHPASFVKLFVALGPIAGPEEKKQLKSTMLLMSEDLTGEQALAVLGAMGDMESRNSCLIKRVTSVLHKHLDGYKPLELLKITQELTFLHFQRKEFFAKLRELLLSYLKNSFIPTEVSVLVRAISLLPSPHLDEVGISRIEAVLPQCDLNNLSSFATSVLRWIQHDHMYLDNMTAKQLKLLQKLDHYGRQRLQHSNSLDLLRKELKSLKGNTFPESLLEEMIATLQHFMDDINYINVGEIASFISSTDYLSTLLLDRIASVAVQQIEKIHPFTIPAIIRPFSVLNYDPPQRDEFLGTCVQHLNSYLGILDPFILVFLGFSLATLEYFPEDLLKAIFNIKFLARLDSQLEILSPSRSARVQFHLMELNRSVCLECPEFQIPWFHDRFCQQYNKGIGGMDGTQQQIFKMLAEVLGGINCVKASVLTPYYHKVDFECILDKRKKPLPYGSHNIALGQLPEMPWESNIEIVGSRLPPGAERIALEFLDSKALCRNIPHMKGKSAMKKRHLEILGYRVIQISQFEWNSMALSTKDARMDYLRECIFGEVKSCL
The assay is described as above.

Assay [5] concerns the target extended human kinome (kinase-like proteins) (Homo sapiens, UniProt Q9UIJ7). The description is as above.
The target in assay [6] is protein kinases (human kinome) (Homo sapiens, UniProt Q00534). In kind it is cell-based. The following applies: for logFC CDK6: CDK6 (Q00534), direction down; for logFC of CDK6 (Q00534): down.
Chain of protein kinases (human kinome) (Homo sapiens, UniProt Q00534) (Q00534 whole entry): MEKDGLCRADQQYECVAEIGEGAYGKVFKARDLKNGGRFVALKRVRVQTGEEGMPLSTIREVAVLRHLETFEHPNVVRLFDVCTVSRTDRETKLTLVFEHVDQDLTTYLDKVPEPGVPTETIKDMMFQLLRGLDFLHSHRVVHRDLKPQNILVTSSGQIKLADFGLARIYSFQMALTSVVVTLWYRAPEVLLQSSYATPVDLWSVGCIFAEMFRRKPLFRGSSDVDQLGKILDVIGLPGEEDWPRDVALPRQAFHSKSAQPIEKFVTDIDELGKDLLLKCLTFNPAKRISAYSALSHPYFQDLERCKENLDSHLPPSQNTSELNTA

Chain of extended human kinome (kinase-like proteins) (Homo sapiens, UniProt Q9UIJ7) (Q9UIJ7 whole entry): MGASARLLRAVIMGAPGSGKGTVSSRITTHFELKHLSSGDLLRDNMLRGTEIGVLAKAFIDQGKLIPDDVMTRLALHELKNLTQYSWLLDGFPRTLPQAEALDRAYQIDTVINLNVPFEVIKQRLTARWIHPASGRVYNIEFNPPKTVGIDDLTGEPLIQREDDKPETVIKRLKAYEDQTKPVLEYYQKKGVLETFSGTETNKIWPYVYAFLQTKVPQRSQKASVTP
Chain of protein kinases (human kinome) (Homo sapiens, UniProt P53671) (P53671 whole entry): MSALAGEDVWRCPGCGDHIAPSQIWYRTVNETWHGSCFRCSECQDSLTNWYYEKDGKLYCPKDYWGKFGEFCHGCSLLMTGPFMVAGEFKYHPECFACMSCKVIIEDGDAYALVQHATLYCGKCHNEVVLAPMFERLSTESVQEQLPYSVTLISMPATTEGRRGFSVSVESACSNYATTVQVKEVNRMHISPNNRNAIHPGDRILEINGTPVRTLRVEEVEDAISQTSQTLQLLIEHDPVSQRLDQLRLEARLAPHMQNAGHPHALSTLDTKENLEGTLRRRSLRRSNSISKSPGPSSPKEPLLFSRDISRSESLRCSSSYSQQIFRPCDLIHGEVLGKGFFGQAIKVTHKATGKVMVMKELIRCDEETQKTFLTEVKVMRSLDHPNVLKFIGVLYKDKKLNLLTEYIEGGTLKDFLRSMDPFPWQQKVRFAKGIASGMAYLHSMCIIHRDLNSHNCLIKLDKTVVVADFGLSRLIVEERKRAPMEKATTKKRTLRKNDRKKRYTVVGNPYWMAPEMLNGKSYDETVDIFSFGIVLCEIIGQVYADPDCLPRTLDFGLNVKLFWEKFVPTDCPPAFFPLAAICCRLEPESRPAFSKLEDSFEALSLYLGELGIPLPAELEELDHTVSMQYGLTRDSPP
Chain of extended human kinome (kinase-like proteins) (Homo sapiens, UniProt Q16875) (Q16875 whole entry): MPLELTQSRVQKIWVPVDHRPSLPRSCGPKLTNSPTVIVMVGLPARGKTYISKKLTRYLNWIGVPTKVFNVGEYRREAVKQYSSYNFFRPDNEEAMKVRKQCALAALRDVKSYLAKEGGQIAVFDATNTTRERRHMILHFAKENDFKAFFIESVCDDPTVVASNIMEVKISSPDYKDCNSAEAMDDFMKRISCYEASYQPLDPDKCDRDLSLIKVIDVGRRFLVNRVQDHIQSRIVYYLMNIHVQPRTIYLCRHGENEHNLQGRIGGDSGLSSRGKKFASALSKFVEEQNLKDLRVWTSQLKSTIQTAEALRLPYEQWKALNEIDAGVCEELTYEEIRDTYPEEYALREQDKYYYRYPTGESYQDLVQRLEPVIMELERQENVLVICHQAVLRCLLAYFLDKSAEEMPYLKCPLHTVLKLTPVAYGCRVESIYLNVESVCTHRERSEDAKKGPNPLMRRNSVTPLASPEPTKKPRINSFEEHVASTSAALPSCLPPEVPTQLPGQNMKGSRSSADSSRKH

Regarding `Cc1ccc(NC(=O)c2cccc(C(F)(F)F)c2)cc1N1Cc2cnc(Nc3ccc(N4CCN(Cc5cn(CCCCCOc6cccc7c6C(=O)N(C6CCC(=O)NC6=O)C7=O)nn5)CC4)nc3)nc2N(C)C1=O` (centres unmarked) [DB0646, N-(3-(7-((6-(4-((1-(5-((2-(2,6-Dioxopiperidin-3-yl)-1,3-dioxoisoindolin-4-yl)oxy)pentyl)-1H-1,2,3-triazol-4-yl)methyl)piperazin-1-v)pyridin-3-yl)amino)-1-methyl-2-oxo-1,4-dihydropyrimido[4,5-d]pyrimidin-3(2H)-yl)-4-methylphenyl)-3-(trifluoromethyl)benzamide], the results for the logFC in assay [1] (4 hr) and in assay [1] (8 hr) were −0.3412 and −0.3989, respectively. Further, the “logFC ULK1” value in assay [1] (experiment wp160, 4 hr) was −0.3412; in assay [1] (experiment wp160, 8 hr) it was −0.3989. The “logFC LIMK2” value in assay [2] (experiment wp045) is recorded as −1.648; in assay [2] (experiment wp103) it was −1.569; in assay [2] (experiment wp107), −1.738; in assay [2] (experiment wp117) it was −1.565; in assay [2] (experiment wp152), −1.565; in assay [2] (experiment wp172) it was −1.095. Besides, the “logFC of LIMK2” value was −1.648 in assay [2] (experiment wp045); −1.569 in assay [2] (experiment wp103); −1.738 in assay [2] (experiment wp107); −1.565 in assay [2] (experiment wp117); −1.565 in assay [2] (experiment wp152); −1.095 in assay [2] (experiment wp172). Further, the “logFC PFKFB3” value in assay [3] (experiment wp045) was −0.5182; in assay [3] (experiment wp160, 8 hr), −0.3754.
In the case of `Cc1ccc(NC(=O)c2cccc(C(F)(F)F)c2)cc1N1Cc2cnc(Nc3ccc(N4CCN(CCCOc5cccc6c5C(=O)N(C5CCC(=O)NC5=O)C6=O)CC4)nc3)nc2N(C)C1=O` (centres unmarked) [DB0662], the logFC in assay [1] is on record as −0.3582. For the same compound, in assay [1] (experiment wp168), the “logFC ULK1” value is reported as −0.3582. For the same compound, in assay [3] (experiment wp168), the “logFC PFKFB3” value was −0.4517.
On to `Cc1ccc(NC(=O)c2cccc(C(F)(F)F)c2)cc1N1Cc2cnc(Nc3ccc(N4CCN(CCCCCCOc5cccc6c5C(=O)N(C5CCC(=O)NC5=O)C6=O)CC4)nc3)nc2N(C)C1=O` (centres unmarked) [DB0663], for which, in assay [2] (experiment wp045), the “logFC LIMK2” value is recorded as −1.367 and the “logFC of LIMK2” value was −1.367. For the same compound, the “logFC PFKFB3” value in assay [3] (experiment wp045) is −0.4221.
Take `Cc1ccc(NC(=O)c2cccc(C(F)(F)F)c2)cc1N1Cc2cnc(Nc3ccc(N4CCN(CCCCC(=O)N[C@H](C(=O)N5C[C@H](O)C[C@H]5C(=O)N[C@@H](C)c5ccc(-c6scnc6C)cc5)C(C)(C)C)CC4)nc3)nc2N(C)C1=O` [DB1113]: the logFC in assay [1] is −0.352. Also, the “logFC ULK1” value in assay [1] (experiment wp168) is −0.352. In addition, the “logFC PFKFB3” value in assay [3] (experiment wp168) was −0.3724.
As to `CC(C)(C)c1nc(-c2cccc(NS(=O)(=O)c3c(F)cccc3F)c2F)c(-c2ccnc(NCCOCCNC(=O)CCOCCOCCNc3cccc4c3CN(C3CCC(=O)NC3=O)C4=O)n2)s1` (centres unmarked) [DD.03.107], the “logFC FASTKD1 (Q53R41)” value was −0.58 in assay [4] (experiment wp147, 1 uM); −0.5044 in assay [4] (experiment wp147, 2 uM); −0.9447 in assay [4] (experiment wp147, 4 uM). In addition, the “logFC AK3 (Q9UIJ7-1)” value in assay [5] (experiment wp147, 1 uM) was −0.5265; in assay [5] (experiment wp147, 2 uM), −0.5607; in assay [5] (experiment wp147, 4 uM), −1.001.
`Cc1cnc(Nc2ccc(N3CCN(CCOCCOCCNC(=O)COc4cccc5c4C(=O)N(C4CCC(=O)NC4=O)C5=O)CC3)cc2)nc1Nc1cccc(S(=O)(=O)NC(C)(C)C)c1` (centres unmarked) [JWG.118]: in assay [5] (experiment wp071), the “logFC AK3 (Q9UIJ7-1)” value is −0.4221.
Turning to `CNC(=O)c1ccccc1Nc1cc(Nc2ccc(N3CCN(CCOCCOCCNC(=O)CNc4cccc5c4C(=O)N(C4CCC(=O)NC4=O)C5=O)CC3)cc2OC)ncc1C(F)(F)F` (centres unmarked) [MFH.5.103.1], the “logFC AK3 (Q9UIJ7-1)” value in assay [5] (experiment wp076) is −0.431.
In the case of `CC(C)S(=O)(=O)c1ccccc1Nc1nc(Nc2ccc(N3CCN(CCOCCOCCNC(=O)CNc4cccc5c4C(=O)N(C4CCC(=O)NC4=O)C5=O)CC3)cc2)ncc1Cl` (centres unmarked) [TL12.186], the figures for the “logFC ULK1” value in assay [1] (experiment wp131) and in assay [1] (experiment wp137) were −3.01 and −2.237, respectively. Further, the “logFC CDK6” value in assay [6] (experiment wp016) was −0.5831; in assay [6] (experiment wp131), −0.9892; in assay [6] (experiment wp137) it was −0.8724. The “logFC of CDK6 (Q00534)” value is given as −0.5831 in assay [6] (Experiment wp016), −0.9892 in assay [6] (Experiment wp131) and −0.8724 in assay [6] (Experiment wp137). Moreover, the results for the “logFC LIMK2” value in assay [2] (experiment wp016), in assay [2] (experiment wp131) and in assay [2] (experiment wp137) were −0.7395, −1.323 and −1.179, respectively. Moreover, the “logFC of LIMK2” value in assay [2] (experiment wp016) is reported as −0.7395; in assay [2] (experiment wp131), −1.323; in assay [2] (experiment wp137) it was −1.179. Also, the “logFC FASTKD1 (Q53R41)” value in assay [4] (experiment wp137) is −0.3731. The “logFC PFKFB3” value in assay [3] (experiment wp131) is −0.5643; in assay [3] (experiment wp137), −0.4067.
In the case of `CC(C)S(=O)(=O)c1ccccc1Nc1nc(Nc2ccc(N3CCN(CCOCCOCCC(=O)NCCNc4cccc5c4CN(C4CCC(=O)NC4=O)C5=O)CC3)cc2)ncc1Cl` (centres unmarked) [TL13.97], the logFC in assay [1] was −1.877. In addition, the “logFC ULK1” value in assay [1] (experiment wp137) is listed as −1.877. Moreover, the “logFC CDK6” value in assay [6] (experiment wp137) is given as −0.5967. Also, in assay [6] (Experiment wp137), the “logFC of CDK6 (Q00534)” value is on record as −0.5967. Besides, in assay [2] (experiment wp137), the “logFC LIMK2” value is recorded as −0.9054 and the “logFC of LIMK2” value is on record as −0.9054. Besides, the “logFC FASTKD1 (Q53R41)” value in assay [4] (experiment wp137) is −0.3684.
Take `C=CCn1c(=O)c2cnc(Nc3ccc(N4CCN(CCCNc5cccc6c5C(=O)N(C5CCC(=O)NC5=O)C6=O)CC4)cc3)nc2n1-c1cccc(C(C)(C)O)n1` (centres unmarked) [ZNL.02.096]: the “logFC FASTKD1 (Q53R41)” value in assay [4] (experiment wp056) was −0.4079; in assay [4] (experiment wp118), −0.4559. The “logFC PFKFB3” value in assay [3] (experiment wp118) is −0.4051.
